Converted amounts (≈) assume the structure as drawn. Read-outs that look alike come from different tables or passages of the source.
Legend:
3T3 cells = test: Cell growth inhibition bioassay (sulforhodamine B); type: cell-based, mouse; conditions: Mus musculus, NIH3T3; 48 h, SRB; read-out: GI50 in indicated cell line: 3T3
Procedure, shortened: (§1)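 Cells were exposed to compound alongside matched solvent controls, then stained with sulforhodamine B. Percent growth inhibition was calculated from dye absorbance against the control.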

DU145 cells = test: Cell growth inhibition bioassay (sulforhodamine B); type: cell-based, human; conditions: Homo sapiens, DU-145; 48 h, SRB; read-out: GI50 in indicated cell line: DU145
Procedure, shortened: (§2)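 Cytotoxicity is read by sulforhodamine B colorimetry following the Skehan protocol; values are growth inhibition relative to solvent-only wells.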

H460 cells = test: Cell growth inhibition bioassay (sulforhodamine B); type: cell-based, human; conditions: Homo sapiens, NCI-H460; 48 h, SRB; read-out: GI50 in indicated cell line: H460
Procedure, shortened: as §1

HT-29 cells = test: Cell growth inhibition bioassay (sulforhodamine B); type: cell-based, human; conditions: Homo sapiens, HT-29; 48 h, SRB; read-out: GI50 in indicated cell line: HT-29
Procedure, shortened: as §1

K562 cells = test: Cell growth inhibition bioassay (sulforhodamine B); type: cell-based, human; conditions: Homo sapiens, K562; 48 h, SRB; read-out: GI50 in indicated cell line: K562
Procedure, shortened: as §1

M-14 cells = test: Cell growth inhibition bioassay (sulforhodamine B); type: cell-based, human; conditions: Homo sapiens, M14; 48 h, SRB; read-out: GI50 in indicated cell line: M-14
Procedure, shortened: as §1

MCF-7 cells = test: Cell growth inhibition bioassay (sulforhodamine B); type: cell-based, human; conditions: Homo sapiens, MCF7; 48 h, SRB; read-out: GI50 in indicated cell line: MCF-7
Procedure, shortened: as §2

VERO cells = test: Cell growth inhibition bioassay (sulforhodamine B); type: cell-based, African Green Monkey; conditions: Chlorocebus sabaeus, Vero; 48 h, SRB; read-out: GI50 in indicated cell line: VERO
Procedure, shortened: as §1

M. tuberculosis H37Rv = test: Conventional aerobic (MABA) culture assay, luminescence MIC; type: cell-based, Mycobacterium tuberculosis; conditions: for MIC: Mycobacterium tuberculosis, 168 h, aerobic, 7 days, H37Rv; for Selectivity Index H37Rv: VERO vs MABA MIC
[1] = Toxicity to peritoneal macrophages (Trypan Blue count); type: cell-based, BALB/C mouse; conditions: BALB/C, mouse, Cytotoxicity Macrophages IC50
[2] = test system: axenic amastigotes of L. amazonensis (strain MHOM/BR/76/LTB-012); conditions: Table 8b
L. amazonensis = conditions: intralesional, compounds 5 mg/kg/day, Glucantime 33 mg Sb(v)/kg/day; for Mean lesion wt (mg) (±SD): BALB/c mice n=10; for % Variation of lesion wt / % reduction of parasite burden in the lesion: vs control
[3] = test system: axenic amastigotes of L. amazonensis (strain MHOM/BR/76/LTB-012); test: microbe, parasite or virus in culture; conditions: Leishmania amazonensis, read-out: L. amazonensis IC50
[4] = Cytotoxicity on VERO cells (MTT), anti-T. cruzi study; conditions: African green monkey, VERO cells, Cytotoxicity VERO Lab B, Lab B
L. braziliensis PER006 = test: Activity against macrophages infected with Leishmania amastigotes; conditions: Leishmania braziliensis, Macrophage, read-out: IC50 L. braziliensis PER006
L. peruviana LCA08 = test: as above; conditions: Leishmania peruviana, Macrophage, read-out: IC50 L. peruviana LCA08
Experimental: A cloned line of Leishmania amazonensis(strain MHOM/BR/76/LTB-012) was used in all experiments. Axenically grown amastigote forms of L. amazonensis were maintained by weekly subpassages in MAA/20 medium (Sereno and Lemesre, Antimicrobial Agents and Chemotherapy 41, 972-976 (1997)) at 32±1° C. in 25 cm^2 tissue culture flasks. L. peruviana (strain MHOM/PE/LCA08) and L. braziliensis (strainMHOM/PE/PER006) were maintained in the promastigote stage in a biphasic medium (blood agar with 0.89% NaCl, pH 7.4) at 24° C., with sub-passage every 3 to 4 days. Promastigotes (5×10^6 parasites) were then transferred to 25 cm2 tissue culture flasks containing 5 ml of M199 medium supplemented with 10% foetal bovine serum (FBS), pH 7.4. After 4 days, exponential phase promastigotes were centrifuged for 10 minutes at 1500 g and 4° C. The supernatant was discarded and replaced by fresh M199 medium supplemented with 20% FBS, pH 5.5. Axenic amastigotes transformation was then induced by increasing the temperature to 34° C. and incubating for 96 h (Teixeira et al., Parasitology Research 88, 963-968 (2002)).
Extracted cells were immediately deposited on sterile 4×4 mm cover glasses and placed in each well of a 96-well plate. Plates were incubated for 24 h at 37° C., 5% CO2 to allow cell adhesion (Castillo et al, Journal of Ethnopharmacology 112, 410-414 (2007)). Pre-warmed complete M199 medium was used twice to remove non-adherent cells. A neutral red method (Fautz et al., Mutation Research 253, 173-179 (1991)) was employed to determine cell concentration. Approximately 7×10^4 viable cells were deposited in each well for adhesion.
Infection of macrophages by amastigotes was determined as follows. […] Twelve hours after infection, a solution of the compounds to be tested was added to the cultures at various concentrations and maintained at 37° C. in 5% CO2 for a further forty-eight hours more. The plates were fixed with methanol and stained with 10% Giemsa stain. The percentage of infected macrophages was determined microscopically at 100 times magnification. The number of intracellular amastigotes was determined in 300 cells. Following Delorenzi et al. Antimicrobial Agents and Chemotherapy, 45, 1349-1354 (2001)) the percentage of infection rate (% IR) of each culture was calculated as follows: % IR=100−(infection rate of the treated culture/infection rate of the untreated culture)×100.
All experiments were performed in triplicate. ANOVA was used to test for statistical significance of differences (Epi-Info, Statview student program). The total parasite burden was calculated as a mean number of amastigotes per cells multiplied by the number of infected macrophages.

[5] = test system: Trypanosoma cruzi (Tulahuen C4); test: In vitro anti-T. cruzi activity (β-galactosidase CPRG colorimetric assay in VERO monolayer); type: cell-based; conditions: for Selectivity Index Lab B: IC50, VERO/IC50, T. cruzi; for IC50: Trypanosoma cruzi, TULAHUEN, Vero
[6] = Cytotoxicity VERO cell (Table 6); conditions: African green monkey, VERO cells
[7] = Lab A, read-out: T. cruzi IC50 Lab A
[8] = Lab B, read-out: T. cruzi IC50 Lab B

| Structure (SMILES) | GI50 (3T3 cells) | GI50 (DU145 cells) | GI50 (H460 cells) | GI50 (HT-29 cells) | GI50 (K562 cells) | GI50 (M-14 cells) | GI50 (MCF-7 cells) | GI50 (VERO cells) | MIC (M. tuberculosis H37Rv) | IC50 at 48 h [1] | Selectivity Index [2] | IC50 [3] | IC50 [4] | Selectivity Index Lab B ([5]; Lab B) | IC50 [5, 7] | IC50 [5, 8] | Selectivity Index H37Rv (M. tuberculosis H37Rv) | IC50 [6] | also measured |
| --- | --- | --- | --- | --- | --- | --- | --- | --- | --- | --- | --- | --- | --- | --- | --- | --- | --- | --- | --- |
| CCc1ccc(/C=N\Nc2ncnc3sc4c(c23)CCCC4)cc1 [II-06] | 12.1 µg/mL (≈ 36 µM) | 19.8 µg/mL (≈ 58.8 µM) | 9.5 µg/mL (≈ 28.2 µM) | 10.8 µg/mL (≈ 32.1 µM) | 3.7 µg/mL (≈ 11 µM) | 64 µg/mL (≈ 190 µM) | 6.2 µg/mL (≈ 18.4 µM) | 6.6 µg/mL (≈ 19.6 µM) | > 100 µg/mL | 50.9 µM | 9.6 | 5300 nM | 4 µg/mL (≈ 11.9 µM) |  |  |  |  |  | Mean lesion size (mm) (L. amazonensis; after 4 weeks treatment): 3.0 mm; Mean parasite quantification (per 10^6) in lesion per mg (±SD) (L. amazonensis; after 4 weeks treatment): 1.19 (±0.27) amastigotes (×10^6)/mg; Mean lesion wt (mg) (±SD) (L. amazonensis; after 4 weeks treatment): 70.9 (±9.9) mg; % Variation of lesion wt (L. amazonensis; after 4 weeks treatment): −17%; % reduction of parasite burden in the lesion (L. amazonensis; after 4 weeks treatment): 30%; Mean lesion size (mm) (L. amazonensis; after 7 weeks treatment): 4.7 mm; Mean parasite quantification (per 10^6) in lesion per mg (±SD) (L. amazonensis; after 7 weeks treatment): 1.46 (±0.30) amastigotes (×10^6)/mg; Mean lesion wt (mg) (±SD) (L. amazonensis; after 7 weeks treatment): 78.4 (±1.6) mg; % Variation of lesion wt (L. amazonensis; after 7 weeks treatment): 12%; % reduction of parasite burden in the lesion (L. amazonensis; after 7 weeks treatment): 2%; IC50 (L. braziliensis PER006): 3.5 µg/mL (≈ 10.4 µM); IC50 (L. peruviana LCA08): 3.2 µg/mL (≈ 9.51 µM) |
| Oc1ccc(/C=N\Nc2ncnc3sc4c(c23)CCCC4)cc1 [II-09] | 2.1 µg/mL (≈ 6.47 µM) | 6.8 µg/mL (≈ 21 µM) | 4.8 µg/mL (≈ 14.8 µM) | 6.3 µg/mL (≈ 19.4 µM) | 5.1 µg/mL (≈ 15.7 µM) | 5.6 µg/mL (≈ 17.3 µM) | 5.5 µg/mL (≈ 17 µM) | 6.8 µg/mL (≈ 21 µM) | 23.4 µg/mL (≈ 72.1 µM) | 57.8 µM | 4.3 | 13500 nM | 4 µg/mL (≈ 12.3 µM) | 1.1 | 2.6 µg/mL (≈ 8.01 µM) | 3.7 µg/mL (≈ 11.4 µM) | 0.6 | 14.6 µg/mL (≈ 45 µM) |  |
| COc1cccc(/C=N\Nc2ncnc3sc4c(c23)CCCC4)c1 [II-11] | 6 µg/mL (≈ 17.7 µM) | 6 µg/mL (≈ 17.7 µM) | 5.5 µg/mL (≈ 16.3 µM) | 2.5 µg/mL (≈ 7.39 µM) | 5.3 µg/mL (≈ 15.7 µM) | 48.4 µg/mL (≈ 143 µM) | 5 µg/mL (≈ 14.8 µM) | 6.2 µg/mL (≈ 18.3 µM) | 40.4 µg/mL (≈ 119 µM) | 5.5 µM | 0.5 | 12200 nM | 5 µg/mL (≈ 14.8 µM) | 0.9 | 1.5 µg/mL (≈ 4.43 µM) | 5.7 µg/mL (≈ 16.8 µM) | 0.6 | 22.7 µg/mL (≈ 67.1 µM) |  |
| C(=N/Nc1ncnc2sc3c(c12)CCCC3)/c1ccc[nH]1 [II-19] | 0.7 µg/mL (≈ 2.35 µM) | 1.4 µg/mL (≈ 4.71 µM) | 0.5 µg/mL (≈ 1.68 µM) | 1.1 µg/mL (≈ 3.7 µM) | 0.6 µg/mL (≈ 2.02 µM) | 0.7 µg/mL (≈ 2.35 µM) | 0.1 µg/mL (≈ 0.336 µM) | 0.6 µg/mL (≈ 2.02 µM) | 6.2 µg/mL (≈ 20.8 µM) | 2.9 µM | 1.0 | 3000 nM | 1 µg/mL (≈ 3.36 µM) | 0.1 | 0.6 µg/mL (≈ 2.02 µM) | 6.8 µg/mL (≈ 22.9 µM) | 0.7 | 4 µg/mL (≈ 13.5 µM) |  |
| Clc1ccccc1/C=N\Nc1ncnc2sc3c(c12)CCCC3 [II-29] | 30.2 µg/mL (≈ 88.1 µM) | 26.7 µg/mL (≈ 77.9 µM) | 21.6 µg/mL (≈ 63 µM) | 19.4 µg/mL (≈ 56.6 µM) | 6.8 µg/mL (≈ 19.8 µM) | > 62.5 µg/mL | 7.5 µg/mL (≈ 21.9 µM) | 9.9 µg/mL (≈ 28.9 µM) | 42.6 µg/mL (≈ 124 µM) | 3.8 µM | 5.0 | 800 nM | 5 µg/mL (≈ 14.6 µM) | 0.7 |  | 7.3 µg/mL (≈ 21.3 µM) | 0.7 | 29.3 µg/mL (≈ 85.5 µM) |  |
| Brc1ccc(/C=N\Nc2ncnc3sc4c(c23)CCCC4)cc1 [II-30] | 6.8 µg/mL (≈ 17.6 µM) | 5.6 µg/mL (≈ 14.5 µM) | 4.1 µg/mL (≈ 10.6 µM) | 4.8 µg/mL (≈ 12.4 µM) | 2.2 µg/mL (≈ 5.68 µM) | 13 µg/mL (≈ 33.6 µM) | 2.3 µg/mL (≈ 5.94 µM) | 2.8 µg/mL (≈ 7.23 µM) | > 100 µg/mL | 3 µM | 8.8 | 300 nM | 6 µg/mL (≈ 15.5 µM) | 0.8 | 1.1 µg/mL (≈ 2.84 µM) | 7.9 µg/mL (≈ 20.4 µM) |  |  | IC50 (L. braziliensis PER006): > 0.5 µg/mL; IC50 (L. peruviana LCA08): > 0.5 µg/mL |
| Brc1ccccc1/C=N\Nc1ncnc2sc3c(c12)CCCC3 [II-31] | 4.3 µg/mL (≈ 11.1 µM) | 2.8 µg/mL (≈ 7.23 µM) | 3 µg/mL (≈ 7.75 µM) | 3.1 µg/mL (≈ 8 µM) | 1.2 µg/mL (≈ 3.1 µM) | 6 µg/mL (≈ 15.5 µM) | 1.7 µg/mL (≈ 4.39 µM) | 2 µg/mL (≈ 5.16 µM) | 9.4 µg/mL (≈ 24.3 µM) | 2.9 µM | 5.8 | 500 nM | 3 µg/mL (≈ 7.75 µM) | 0.8 | 0.8 µg/mL (≈ 2.07 µM) | 3.6 µg/mL (≈ 9.29 µM) | 0.8 | 7.7 µg/mL (≈ 19.9 µM) |  |
